Key:
[1] = organism: Homo sapiens; test: Percent inhibition of collagen stimulated platelet aggregation at a concentration of 10 uM; assay type: functional
[2] = Stimulation of soluble guanylate cyclase (sGC) using baculovirus expressed and partially purified bovine sGC at 1 uM concentration relative to benzydamine
[3] = Tmax at the dose of 2 mg/Kg administered perorally in rats; assay type: ADME, organism-based; conditions: rat, in vivo, po
[4] = organism: Homo sapiens; test: Concentration required to inhibit collagen induced platelet aggregation by 50%; assay type: functional, organism-based
[5] = Cmax at the dose of 2 mg/Kg administered perorally in rats; assay type: ADME, organism-based; design: dose 2 mg/Kg, route oral; conditions: rat, in vivo, po
[6] = tested on: Rattus norvegicus; test: Area under curve at the dose of 2 mg/Kg administered perorally in rats; assay type: ADME, organism-based; conditions: in vivo, po
[7] = Bioavailability in rat (dose 2 mg/kg p.o.); assay type: ADME, organism-based; conditions: in vivo, po
[8] = biological target: Soluble guanylate cyclase (Homo sapiens, UniProt O75343+P33402+Q02108+Q02153); test: The cGMP produced by compound was expressed as a ratio between the percentage of the DEA/NO response for the compound; assay type: protein-complex assay
[9] = tested on: Rattus norvegicus; test: Area under curve at the dose of 5 mg/Kg administered perorally in rats; assay type: ADME, organism-based; conditions: in vivo, po
[10] = Percent bioavailability at the dose of 5 mg/Kg administered perorally in rats; assay type: ADME, organism-based; conditions: rat, in vivo, po
[11] = Tmax at the dose of 5 mg/Kg administered perorally in rats; assay type: ADME, organism-based; conditions: rat, in vivo, po
[12] = Cmax at the dose of 5 mg/Kg administered perorally in rats; assay type: ADME, organism-based; design: dose 5 mg/Kg, route oral; conditions: rat, in vivo, po

Sequence of Soluble guanylate cyclase (Q02153 whole entry): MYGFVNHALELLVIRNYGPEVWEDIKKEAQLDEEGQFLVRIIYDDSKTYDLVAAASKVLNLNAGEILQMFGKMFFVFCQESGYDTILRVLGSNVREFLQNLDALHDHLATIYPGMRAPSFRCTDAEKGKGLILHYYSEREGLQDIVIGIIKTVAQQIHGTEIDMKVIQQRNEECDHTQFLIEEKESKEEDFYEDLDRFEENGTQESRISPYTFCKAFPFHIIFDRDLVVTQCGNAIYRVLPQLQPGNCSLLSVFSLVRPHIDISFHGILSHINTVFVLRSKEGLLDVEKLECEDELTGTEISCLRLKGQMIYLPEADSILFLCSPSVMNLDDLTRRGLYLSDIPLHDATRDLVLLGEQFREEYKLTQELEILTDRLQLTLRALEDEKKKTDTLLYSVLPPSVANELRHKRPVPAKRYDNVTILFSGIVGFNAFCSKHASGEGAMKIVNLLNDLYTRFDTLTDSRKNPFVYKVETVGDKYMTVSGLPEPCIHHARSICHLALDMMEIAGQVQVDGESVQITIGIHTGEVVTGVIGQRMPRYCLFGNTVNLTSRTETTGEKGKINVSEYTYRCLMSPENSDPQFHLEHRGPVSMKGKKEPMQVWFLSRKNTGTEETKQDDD
Sequence of Soluble guanylate cyclase (O75343 whole entry): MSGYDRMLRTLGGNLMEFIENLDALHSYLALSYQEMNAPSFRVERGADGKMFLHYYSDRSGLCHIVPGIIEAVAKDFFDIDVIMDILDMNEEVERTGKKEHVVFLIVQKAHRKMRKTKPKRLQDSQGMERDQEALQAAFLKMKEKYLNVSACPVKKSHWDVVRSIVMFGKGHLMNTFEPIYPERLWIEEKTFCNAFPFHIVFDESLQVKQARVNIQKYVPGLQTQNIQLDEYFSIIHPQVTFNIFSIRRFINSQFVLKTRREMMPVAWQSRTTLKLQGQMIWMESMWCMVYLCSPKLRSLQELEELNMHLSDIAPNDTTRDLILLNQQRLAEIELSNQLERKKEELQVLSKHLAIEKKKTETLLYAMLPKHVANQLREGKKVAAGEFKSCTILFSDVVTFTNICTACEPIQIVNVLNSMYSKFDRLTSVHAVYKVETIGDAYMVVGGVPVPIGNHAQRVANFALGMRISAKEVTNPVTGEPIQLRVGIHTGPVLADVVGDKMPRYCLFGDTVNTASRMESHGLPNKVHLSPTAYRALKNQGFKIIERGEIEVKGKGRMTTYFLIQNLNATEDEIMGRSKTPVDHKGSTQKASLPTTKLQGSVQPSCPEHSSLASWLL
Sequence of Soluble guanylate cyclase (P33402 whole entry): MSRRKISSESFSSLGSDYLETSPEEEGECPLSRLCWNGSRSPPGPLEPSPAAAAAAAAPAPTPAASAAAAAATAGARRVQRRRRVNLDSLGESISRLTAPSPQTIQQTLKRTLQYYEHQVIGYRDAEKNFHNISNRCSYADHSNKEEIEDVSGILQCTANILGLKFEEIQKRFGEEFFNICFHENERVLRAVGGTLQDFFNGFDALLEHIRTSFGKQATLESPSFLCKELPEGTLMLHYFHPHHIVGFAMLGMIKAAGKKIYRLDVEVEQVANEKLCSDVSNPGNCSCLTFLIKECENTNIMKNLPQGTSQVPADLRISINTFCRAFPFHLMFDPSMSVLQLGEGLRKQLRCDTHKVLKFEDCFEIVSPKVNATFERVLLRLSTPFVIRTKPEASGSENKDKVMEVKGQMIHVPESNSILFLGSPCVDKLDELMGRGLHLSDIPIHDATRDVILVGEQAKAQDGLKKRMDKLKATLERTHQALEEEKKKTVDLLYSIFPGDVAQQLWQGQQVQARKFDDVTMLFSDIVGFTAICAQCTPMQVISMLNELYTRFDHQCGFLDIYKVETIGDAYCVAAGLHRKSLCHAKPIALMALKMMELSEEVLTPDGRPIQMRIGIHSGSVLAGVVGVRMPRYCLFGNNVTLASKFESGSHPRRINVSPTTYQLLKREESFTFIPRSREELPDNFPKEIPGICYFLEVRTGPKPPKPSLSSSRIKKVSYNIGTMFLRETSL
Sequence of Soluble guanylate cyclase (Q02108 whole entry): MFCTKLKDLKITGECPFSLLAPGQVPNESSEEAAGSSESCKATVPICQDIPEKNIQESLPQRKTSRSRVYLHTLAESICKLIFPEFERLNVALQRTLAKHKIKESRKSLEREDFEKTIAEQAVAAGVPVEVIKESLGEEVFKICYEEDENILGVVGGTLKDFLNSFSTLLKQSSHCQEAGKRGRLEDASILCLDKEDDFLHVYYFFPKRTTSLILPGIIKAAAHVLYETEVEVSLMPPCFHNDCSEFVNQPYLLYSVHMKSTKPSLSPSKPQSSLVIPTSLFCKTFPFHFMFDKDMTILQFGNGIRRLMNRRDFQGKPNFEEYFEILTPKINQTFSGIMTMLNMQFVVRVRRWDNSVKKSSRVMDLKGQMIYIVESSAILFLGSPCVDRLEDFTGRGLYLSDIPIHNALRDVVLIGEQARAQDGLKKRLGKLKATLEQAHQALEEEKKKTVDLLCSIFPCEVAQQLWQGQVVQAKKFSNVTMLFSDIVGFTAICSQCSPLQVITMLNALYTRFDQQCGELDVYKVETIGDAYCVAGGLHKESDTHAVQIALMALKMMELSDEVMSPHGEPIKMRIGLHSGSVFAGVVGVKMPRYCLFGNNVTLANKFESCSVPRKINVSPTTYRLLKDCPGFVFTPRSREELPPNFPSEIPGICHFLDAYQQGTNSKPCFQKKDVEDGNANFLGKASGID

Row | Relative enzyme activity [2] | SMILES | inhibition at 10 µM [1] | further results
1 | 0.93 | CN(C)CCCOc1cc(C(=O)Nc2cccc(Cl)c2)n(Cc2ccccc2)n1 | 95% | –
2 | 0.87 | CN(C)CCCOc1cc(C(=O)Nc2ccc(Br)cc2)n(Cc2ccccc2)n1 | 90% | Tmax [3]: 5 h; IC50 [4]: 3580 nM; Cmax [5]: 12.1 ng/mL; AUC [6]: 76.9 ng·h/mL; bioavailability [7]: 17%
3 | 1.02 | CN(C)CCCOc1cc(C(=O)Nc2ccccc2F)n(Cc2ccccc2)n1 | 58% | –
4 | 0.74 | CN(C)CCCOc1cc(C(=O)Nc2nc3ccccc3[nH]2)n(Cc2ccccc2)n1 | 13% | –
5 | 0.87 | CN(C)CCCOc1cc(C(=O)Nc2cccc(F)c2)n(Cc2ccccc2)n1 | 95% | –
6 | 0.91 | CN(C)CCCOc1cc(C(=O)Nc2cnc3ccccc3c2)n(Cc2ccccc2)n1 | 95% | Tmax [3]: 5 h; IC50 [4]: 3270 nM; Cmax [5]: 14.3 ng/mL; AUC [6]: 95 ng·h/mL; bioavailability [7]: 19%
7 | 0.97 | CN(C)CCCOc1cc(C(=O)Nc2ccc3ccccc3n2)n(Cc2ccccc2)n1 | 57% | –
8 | 1.31 | CN(C)CCCOc1cc(C(=O)Nc2nccc3ccccc23)n(Cc2ccccc2)n1 | 80% | –

Further lines, the molecule ahead of its results:

Row | SMILES | Relative enzyme activity [2] | inhibition at 10 µM [1] | further results
9 | CN(C)CCCOc1cc(C(=O)Nc2cccc(-c3cnco3)c2)n(Cc2ccccc2)n1 | 0.71 | 83% | –
10 | CN(C)CCCOc1cc(C(=O)Nc2nc3c(s2)CCCC3)n(Cc2ccccc2)n1 | 0.85 | 92% | –
11 | CN(C)CCCOc1cc(C(=O)Nc2cc(F)cc(F)c2)n(Cc2ccccc2)n1 | 0.76 | 44% | –
12 | CN(C)CCCOc1cc(C(=O)Nc2ccc3[nH]ccc3c2)n(Cc2ccccc2)n1 | 0.91 | 66% | –
13 | COc1cc(NC(=O)c2cc(OCCCN(C)C)nn2Cc2ccccc2)cc(OC)c1 | 0.72 | 87% | –
14 | CN(C)CCCOc1nn(Cc2ccccc2)c2ccccc12 [BENZYDAMINE] | – | – | EC50 [8]: 1020 nM
15 | COc1ccc(NC(=O)c2cc(OCCCN(C)C)nn2Cc2ccccc2)cc1 | 1.1 | 83% | AUC [9]: 61.1 ng·h/mL; IC50 [4]: 2840 nM; bioavailability [10]: 12%; Tmax [11]: 2.7 h; Cmax [12]: 6.4 ng/mL
16 | COc1cc(NC(=O)c2cc(OCCCN(C)C)nn2Cc2ccccc2)cc(OC)c1OC | 0.96 | 66% | –
17 | CN(C)CCCOc1cc(C(=O)Nc2cc(F)cc(C(F)(F)F)c2)n(Cc2ccccc2)n1 | 0.9 | 43% | –
18 | COc1ccc(-c2ccccc2)cc1NC(=O)c1cc(OCCCN(C)C)nn1Cc1ccccc1 | 0.86 | 95% | Tmax [3]: 7.3 h; IC50 [4]: 2760 nM; Cmax [5]: 18 ng/mL; AUC [6]: 130 ng·h/mL; bioavailability [7]: 22%
19 | CN(C)CCCOc1cc(C(=O)Nc2nccs2)n(Cc2ccccc2)n1 | 1.06 | 27% | –
20 | COc1cccc(NC(=O)c2cc(OCCCN(C)C)nn2Cc2ccccc2)c1 | 0.74 | 96% | –
21 | CN(C)CCCOc1cc(C(=O)Nc2ccc3c(c2)C(=O)N(C)C3=O)n(Cc2ccccc2)n1 | 0.81 | 64% | –
22 | CN(C)CCCOc1cc(C(=O)Nc2ccc(OC(F)(F)F)cc2)n(Cc2ccccc2)n1 | 0.93 | 85% | –
23 | CN(C)CCCOc1cc(C(=O)Nc2ccc(Cl)cc2F)n(Cc2ccccc2)n1 | 0.91 | 96% | –
24 | COc1ccc(NC(=O)c2cc(OCCCN(C)C)nn2Cc2ccccc2)cc1Cl | 0.88 | 93% | Tmax [3]: 4.5 h; IC50 [4]: 2630 nM; Cmax [5]: 5.4 ng/mL; AUC [6]: 32.6 ng·h/mL; bioavailability [7]: 11%
25 | CN(C)CCCOc1cc(C(=O)Nc2ccn(-c3ccccc3)n2)n(Cc2ccccc2)n1 | 0.71 | 75% | –
26 | CN(C)CCCOc1cc(C(=O)Nc2ccc(-c3csnn3)cc2)n(Cc2ccccc2)n1 | 0.81 | 96% | –

Source: ChEMBL document CHEMBL1134419, “Solution-Phase parallel synthesis of 5-carboxamido 1-benzyl-3-(3-dimethylaminopropyloxy)-1H-pyrazoles as activators of soluble guanylate cyclase with improved oral bioavailability” (Bioorg Med Chem Lett, 2001)
